Calls of active or inactive are those of the source. No cut-off for these calls is given here.
Legend:
Calf thymus DNA [1] = test: Binding affinity to calf thymus DNA by UV-visible absorption spectroscopy; format: nucleic-acid assay, Bos taurus; details: for Kb: Bos taurus
Escherichia coli [2] = test: Photo-cleavage activity in Escherichia coli supercoiled pUC19 DNA assessed as formation of open circular form of DNA at 60 uM measured 2 hrs after UV-light irradiation by gel electrophoresis analysis
Escherichia coli [3] = test: Photo-cleavage activity in Escherichia coli supercoiled pUC19 DNA assessed as formation of nicked form of DNA at 20 to 40 uM measured 2 hrs after UV-light irradiation by gel electrophoresis analysis
Calf thymus DNA [4] = test: Binding affinity to calf thymus DNA assessed as fluorescence quenching at DNA/compound ratio 4 by fluorescence spectrophotometer analysis; format: nucleic-acid assay; details: Bos taurus
Escherichia coli [5] = test: Photo-cleavage activity in Escherichia coli supercoiled pUC19 DNA assessed as formation of linear form of DNA at 80 uM measured 2 hrs after UV-light irradiation by gel electrophoresis analysis
Calf thymus DNA [6] = test: Binding affinity to calf thymus DNA assessed as relative viscosity after 5 mins by semimicrodilution capillary viscometer analysis; format: nucleic-acid assay; details: Bos taurus
Escherichia coli [7] = test: Photo-cleavage activity in Escherichia coli supercoiled pUC19 DNA assessed as formation of nicked form of DNA at 80 uM measured 2 hrs after UV-light irradiation by gel electrophoresis analysis
Escherichia coli [8] = test: Photo-cleavage activity in Escherichia coli supercoiled pUC19 DNA assessed as formation of open circular form of DNA at 80 uM measured 2 hrs after UV-light irradiation by gel electrophoresis analysis
Escherichia coli [9] = test: Photo-cleavage activity in Escherichia coli supercoiled pUC19 DNA assessed as formation of open circular form of DNA at 140 uM measured 2 hrs after UV-light irradiation by gel electrophoresis analysis
Escherichia coli [10] = test: Photo-cleavage activity in Escherichia coli supercoiled pUC19 DNA assessed as formation of open circular form of DNA at 40 uM measured 2 hrs after UV-light irradiation by gel electrophoresis analysis

Compound | Kb (Calf thymus DNA [1]) | Activity (Escherichia coli [2]) | Activity (Escherichia coli [3]) | Activity (Calf thymus DNA [4]) | Activity (Escherichia coli [5]) | Activity (Calf thymus DNA [6]) | Activity (Escherichia coli [7]) | Activity (Escherichia coli [8]) | Activity (Escherichia coli [9]) | Activity (Escherichia coli [10]) | Ki (Calf thymus DNA [1])
CNc1ccc(C(=O)/C=C/c2cc3ccccc3nc2Cl)cc1 | 3.5 ×10⁴ /M | 57% | 8% |  | 24% |  | 40% | 40% |  |  | 
COc1ccc(C(=O)/C=C/c2cc3ccccc3nc2Cl)cc1 | 2.8 ×10⁴ /M | 52% | 8% | Active | 24% | Active | 70% |  | 58% |  | 
O=C(/C=C/c1cc2ccccc2nc1Cl)c1ccc([N+](=O)[O-])cc1 | 4.91 ×10⁴ /M | 56% | 8% | Active | 24% | Active | 70% |  |  |  | 531 nM
O=C(/C=C/c1cc2ccccc2nc1Cl)c1ccccc1 | 5.2 ×10⁴ /M | 50% | 8% | Active | 24% | Active | 70% |  |  |  | 572 nM

Second part, led by results:

Kb (Calf thymus DNA [1]) | Activity (Escherichia coli [2]) | Activity (Escherichia coli [3]) | Activity (Calf thymus DNA [4]) | Activity (Escherichia coli [5]) | Activity (Calf thymus DNA [6]) | Activity (Escherichia coli [7]) | Activity (Escherichia coli [8]) | Activity (Escherichia coli [9]) | Activity (Escherichia coli [10]) | Compound | Ki (Calf thymus DNA [1])
4.2 ×10⁴ /M | 55% | 8% | Active | 24% | Active | 70% |  |  |  | O=C(/C=C/c1cc2ccccc2nc1Cl)c1ccc(Br)cc1 | 468 nM
4.9 ×10⁴ /M | 51% | 8% | Active | 24% | Active | 70% |  |  |  | Cc1ccc(C(=O)/C=C/c2cc3ccccc3nc2Cl)cc1 | 540 nM
5.13 ×10⁴ /M | 54% | 8% | Active | 24% | Active | 70% |  |  |  | O=C(/C=C/c1cc2ccccc2nc1Cl)c1ccc(Cl)cc1 | 562 nM
1.9 ×10⁴ /M | 53% | 8% | Active | 24% | Active | 70% | 70% |  | 24% | O=C(/C=C/c1cc2ccccc2nc1Cl)c1ccc(O)cc1 | 

— ChEMBL document CHEMBL3621078, “Synthesis, DNA binding, docking and photocleavage studies of quinolinyl chalcones” (Medchemcomm, 2014)
